Patent publication US20230265151A1, “GIP/GLP1 CO-AGONIST COMPOUNDS” (priority 2020, published 2023)
Like-named read-outs stand apart in the source and are kept apart here.

What was measured:
hGIPR = target: T1, hGIPR (Homo sapiens, UniProt P48546); assay: Functional cAMP formation (HTRF) in HEK-293 clonal cells expressing hGIPR, 0.1% bovine casein, without or with 1.0% human serum albumin; assay type: cell-based; conditions: for EC50: cAMP
T1 construct: expressed in transfected cells
T1 sequence (P48546 22-466): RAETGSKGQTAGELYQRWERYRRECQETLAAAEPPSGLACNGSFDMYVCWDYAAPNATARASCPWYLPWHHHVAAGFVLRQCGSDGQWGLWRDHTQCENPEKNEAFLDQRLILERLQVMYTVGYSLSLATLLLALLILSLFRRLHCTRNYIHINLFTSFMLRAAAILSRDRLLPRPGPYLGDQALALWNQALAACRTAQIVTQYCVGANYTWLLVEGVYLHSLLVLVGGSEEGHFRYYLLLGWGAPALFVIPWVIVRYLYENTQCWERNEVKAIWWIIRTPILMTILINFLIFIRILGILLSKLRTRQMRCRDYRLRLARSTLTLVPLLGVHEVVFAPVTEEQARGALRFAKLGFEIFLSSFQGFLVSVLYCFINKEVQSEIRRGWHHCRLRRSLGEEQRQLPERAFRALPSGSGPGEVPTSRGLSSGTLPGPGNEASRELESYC
Summary of the method: (§1)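 Cells were stimulated with peptide for 30 min at 37° C, then intracellular cAMP was measured by competitive HTRF (665/620 nm ratio) and converted to nM using a cAMP standard curve. Relative EC50 and Emax came from four-parameter logistic fits of percent maximal response against peptide concentration.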

hGLP-1R = hGLP-1R (Homo sapiens, UniProt P43220); assay: Functional cAMP formation (HTRF) in HEK-293 clonal cells expressing hGLP-1R, 0.1% bovine casein, without or with 1.0% human serum albumin; assay type: cell-based; set-up: expressed in transfected cells; conditions: for EC50: cAMP, 0.1% bovine casein (no human serum albumin), geometric mean
hGLP-1R, sequence (P43220 24-463): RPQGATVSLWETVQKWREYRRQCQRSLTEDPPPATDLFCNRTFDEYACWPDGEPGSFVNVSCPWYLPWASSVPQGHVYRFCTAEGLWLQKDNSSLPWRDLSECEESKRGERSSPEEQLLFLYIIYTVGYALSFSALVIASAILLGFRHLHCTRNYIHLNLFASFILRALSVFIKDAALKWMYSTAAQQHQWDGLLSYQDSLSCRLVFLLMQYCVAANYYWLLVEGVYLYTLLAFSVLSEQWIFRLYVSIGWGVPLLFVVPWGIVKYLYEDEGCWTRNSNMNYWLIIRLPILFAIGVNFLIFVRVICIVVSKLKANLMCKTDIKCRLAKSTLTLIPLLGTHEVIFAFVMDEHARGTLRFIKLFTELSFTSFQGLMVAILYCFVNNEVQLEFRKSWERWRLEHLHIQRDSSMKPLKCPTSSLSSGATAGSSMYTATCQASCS
Summary of the method: as §1

[1] = HEK293, 0.1% bovine casein and 1.0% human serum albumin, 37° C., percent of maximal response to GIP(1-42)NH2, read-out: hGIPR Emax, % ± SEM
[2] = HEK293, percent of maximal response to GIP(1-42)NH2, 37° C., 0.1% bovine casein, arithmetic mean, read-out: hGIPR Emax, % ± SEM
[3] = HEK293, 0.1% bovine casein and 1.0% human serum albumin, 37° C., percent of maximal response to GLP-1(7-36)NH2, read-out: hGLP-1R Emax, % ± SEM
[4] = HEK293, percent of maximal response to GLP-1(7-36)NH2, 37° C., 0.1% bovine casein, arithmetic mean, read-out: hGLP-1R Emax, % ± SEM
[5] = incubated at 37° C., read-out: hGLP-1R EC50, nM (SEM, n)

SMILES: CC[C@H](C)[C@H](NC(=O)[C@H](CC(C)C)NC(=O)[C@](C)(Cc1ccc(O)cc1)NC(=O)[C@@H](CCC(=O)O)NC(=O)[C@@H](NC(=O)[C@H](Cc1ccccc1)NC(=O)[C@H](CCC(=O)O)NC(=O)C(C)(C)NC(=O)[C@H](CCC(N)=O)NC(=O)[C@H](C)NC(=O)[C@H](CCCCNC(=O)COCCOCCNC(=O)COCCOCCNC(=O)CC[C@H](NC(=O)CCCCCCCCCCCCC(=O)O)C(=O)O)NC(=O)[C@H](CCCN)NC(=O)[C@H](CC(=O)O)NC(=O)[C@H](CC(C)C)NC(=O)[C@](C)(CC(C)C)NC(=O)[C@@H](NC(=O)C(C)(C)NC(=O)[C@@H](NC(=O)[C@H](CC(=O)O)NC(=O)[C@H](CO)NC(=O)[C@@H](NC(=O)[C@](C)(Cc1ccccc1F)NC(=O)[C@@H](NC(=O)CNC(=O)[C@H](CCC(=O)O)NC(=O)C(C)(C)NC(=O)[C@@H](N)Cc1ccc(O)cc1)[C@@H](C)O)[C@@H](C)O)C(C)C)[C@@H](C)CC)[C@@H](C)CC)C(=O)N[C@@H](CCC(=O)O)C(=O)NCC(=O)NCC(=O)N[C@@H](CCCCNC(=O)COCCOCCNC(=O)COCCOCCNC(=O)CC[C@H](NC(=O)CCCCCCCCCCCCC(=O)O)C(=O)O)C(=O)N[C@@H](CO)C(=O)N[C@@H](CO)C(=O)NCC(=O)N[C@@H](C)C(=O)N1CCC[C@H]1C(=O)N1CCC[C@H]1C(=O)N1CCC[C@H]1C(=O)N[C@@H](CO)C(N)=O [Example 91]
- Emax (hGIPR; [1]): 91.9%
- Emax (hGIPR; [2]): 92.8 ± 4.69%
- Emax (hGLP-1R; [3]): 89.8%
- Emax (hGLP-1R; [4]): 94 ± 5.44%
- EC50 (hGLP-1R; [5]): 0.153 nM

SMILES: CC[C@H](C)[C@H](NC(=O)[C@H](CC(C)C)NC(=O)[C@](C)(Cc1ccc(O)cc1)NC(=O)[C@@H](CCC(=O)O)NC(=O)[C@@H](NC(=O)[C@H](Cc1ccccc1)NC(=O)[C@H](CCC(=O)O)NC(=O)C(C)(C)NC(=O)[C@H](CCC(N)=O)NC(=O)[C@H](C)NC(=O)[C@H](CCCCNC(=O)COCCOCCNC(=O)COCCOCCNC(=O)CC[C@H](NC(=O)CCCCCCCCCCCCC(=O)O)C(=O)O)NC(=O)[C@H](CCCN)NC(=O)[C@H](CC(=O)O)NC(=O)[C@H](CC(C)C)NC(=O)[C@](C)(CC(C)C)NC(=O)[C@@H](NC(=O)[C@](C)(CO)NC(=O)[C@@H](NC(=O)[C@H](CC(=O)O)NC(=O)[C@H](CO)NC(=O)[C@@H](NC(=O)[C@](C)(Cc1ccccc1F)NC(=O)[C@@H](NC(=O)CNC(=O)[C@H](CCC(=O)O)NC(=O)C(C)(C)NC(=O)[C@@H](N)Cc1ccc(O)cc1)[C@@H](C)O)[C@@H](C)O)C(C)C)[C@@H](C)CC)[C@@H](C)CC)C(=O)N[C@@H](CCC(=O)O)C(=O)NCC(=O)NCC(=O)N[C@@H](CCCCNC(=O)COCCOCCNC(=O)COCCOCCNC(=O)CC[C@H](NC(=O)CCCCCCCCCCCCC(=O)O)C(=O)O)C(=O)N[C@@H](CO)C(=O)N[C@@H](CO)C(=O)NCC(=O)N[C@@H](C)C(=O)N1CCC[C@H]1C(=O)N1CCC[C@H]1C(=O)N1CCC[C@H]1C(=O)N[C@@H](CO)C(N)=O [Example 212]
- Emax (hGIPR; [1]): 81%
- Emax (hGIPR; [2]): 100%
- EC50 (hGIPR; incubated at 37° C., 0.1% bovine casein (no human serum albumin), geometric mean, read-out: hGIPR EC50, nM (SEM, n)): 0.0385 nM
- Emax (hGLP-1R; [3]): 91%
- Emax (hGLP-1R; [4]): 94.7%
- EC50 (hGLP-1R; [5]): 0.265 nM

SMILES: CC[C@H](C)[C@H](NC(=O)[C@H](CC(C)C)NC(=O)[C@](C)(Cc1ccc(O)cc1)NC(=O)[C@H](CCCCNC(=O)CC[C@H](NC(=O)COCCOCCNC(=O)COCCOCCNC(=O)CC[C@H](NC(=O)CCCCCCCCCOc1ccc(C(=O)O)cc1)C(=O)O)C(=O)O)NC(=O)[C@@H](NC(=O)[C@H](Cc1ccccc1)NC(=O)[C@H](CCCN)NC(=O)C(C)(C)NC(=O)[C@H](CCC(N)=O)NC(=O)[C@H](C)NC(=O)[C@H](CCC(N)=O)NC(=O)[C@H](CCCN)NC(=O)[C@H](CC(=O)O)NC(=O)[C@H](CC(C)C)NC(=O)[C@](C)(CC(C)C)NC(=O)[C@@H](NC(=O)C(C)(C)NC(=O)[C@H](Cc1ccncc1)NC(=O)[C@H](CC(=O)O)NC(=O)[C@H](CO)NC(=O)[C@@H](NC(=O)[C@](C)(Cc1ccccc1F)NC(=O)[C@@H](NC(=O)CNC(=O)[C@H](CCC(=O)O)NC(=O)C(C)(C)NC(=O)[C@@H](N)Cc1ccc(O)cc1)[C@@H](C)O)[C@@H](C)O)[C@@H](C)CC)[C@@H](C)CC)C(=O)N[C@@H](CCCCNC(=O)CC[C@H](NC(=O)COCCOCCNC(=O)COCCOCCNC(=O)CC[C@H](NC(=O)CCCCCCCCCOc1ccc(C(=O)O)cc1)C(=O)O)C(=O)O)C(=O)NCC(=O)NCC(=O)N1CCC[C@H]1C(=O)N[C@@H](CO)C(=O)N[C@@H](CO)C(=O)NCC(=O)N[C@@H](C)C(=O)N1CCC[C@H]1C(=O)N1CCC[C@H]1C(=O)N1CCC[C@H]1C(=O)N[C@@H](CO)C(N)=O [Example 483]
- Emax (hGIPR; HEK293, read-out: hGIPR Emax, % ± SEM, cAMP, 37° C., 0.1% bovine casein and 1.0% human serum albumin, percent of maximal response to GIP(1-42)NH2): 92.6%
- Emax (hGIPR; HEK293, read-out: hGIPR Emax, % ± SEM, cAMP, 37° C., 0.1% bovine casein, percent of maximal response to GIP(1-42)NH2, arithmetic mean): 97.4%
- EC50 (hGIPR; hGIPR EC50, nM (SEM, n), 37° C., 0.1% bovine casein (no human serum albumin), geometric mean): 0.0138 nM
- EC50 (hGIPR; hGIPR EC50, nM (SEM, n), 37° C., 0.1% bovine casein and 1.0% human serum albumin, geometric mean (SEM, n)): 0.297 nM
- Emax (hGLP-1R; HEK293, read-out: hGLP-1R Emax, % ± SEM, cAMP, 37° C., 0.1% bovine casein and 1.0% human serum albumin, percent of maximal response to GLP-1(7-36)NH2): 113%
- Emax (hGLP-1R; HEK293, read-out: hGLP-1R Emax, % ± SEM, cAMP, 37° C., 0.1% bovine casein, percent of maximal response to GLP-1(7-36)NH2, arithmetic mean): 118%
- EC50 (hGLP-1R; hGLP-1R EC50, nM (SEM, n), 37° C.): 0.169 nM
